Target: T1, SMARCA2 (Homo sapiens, UniProt P51531)
T1 construct: endogenous in cells; host or cells: HT1080 (CRISPR HiBiT knock-in clone, generated in house)
Assay: SMARCA2 HiBiT degradation assay (cellular)
Assay type: cell-based
Conditions: table head names A549

T1 sequence (P51531 whole entry): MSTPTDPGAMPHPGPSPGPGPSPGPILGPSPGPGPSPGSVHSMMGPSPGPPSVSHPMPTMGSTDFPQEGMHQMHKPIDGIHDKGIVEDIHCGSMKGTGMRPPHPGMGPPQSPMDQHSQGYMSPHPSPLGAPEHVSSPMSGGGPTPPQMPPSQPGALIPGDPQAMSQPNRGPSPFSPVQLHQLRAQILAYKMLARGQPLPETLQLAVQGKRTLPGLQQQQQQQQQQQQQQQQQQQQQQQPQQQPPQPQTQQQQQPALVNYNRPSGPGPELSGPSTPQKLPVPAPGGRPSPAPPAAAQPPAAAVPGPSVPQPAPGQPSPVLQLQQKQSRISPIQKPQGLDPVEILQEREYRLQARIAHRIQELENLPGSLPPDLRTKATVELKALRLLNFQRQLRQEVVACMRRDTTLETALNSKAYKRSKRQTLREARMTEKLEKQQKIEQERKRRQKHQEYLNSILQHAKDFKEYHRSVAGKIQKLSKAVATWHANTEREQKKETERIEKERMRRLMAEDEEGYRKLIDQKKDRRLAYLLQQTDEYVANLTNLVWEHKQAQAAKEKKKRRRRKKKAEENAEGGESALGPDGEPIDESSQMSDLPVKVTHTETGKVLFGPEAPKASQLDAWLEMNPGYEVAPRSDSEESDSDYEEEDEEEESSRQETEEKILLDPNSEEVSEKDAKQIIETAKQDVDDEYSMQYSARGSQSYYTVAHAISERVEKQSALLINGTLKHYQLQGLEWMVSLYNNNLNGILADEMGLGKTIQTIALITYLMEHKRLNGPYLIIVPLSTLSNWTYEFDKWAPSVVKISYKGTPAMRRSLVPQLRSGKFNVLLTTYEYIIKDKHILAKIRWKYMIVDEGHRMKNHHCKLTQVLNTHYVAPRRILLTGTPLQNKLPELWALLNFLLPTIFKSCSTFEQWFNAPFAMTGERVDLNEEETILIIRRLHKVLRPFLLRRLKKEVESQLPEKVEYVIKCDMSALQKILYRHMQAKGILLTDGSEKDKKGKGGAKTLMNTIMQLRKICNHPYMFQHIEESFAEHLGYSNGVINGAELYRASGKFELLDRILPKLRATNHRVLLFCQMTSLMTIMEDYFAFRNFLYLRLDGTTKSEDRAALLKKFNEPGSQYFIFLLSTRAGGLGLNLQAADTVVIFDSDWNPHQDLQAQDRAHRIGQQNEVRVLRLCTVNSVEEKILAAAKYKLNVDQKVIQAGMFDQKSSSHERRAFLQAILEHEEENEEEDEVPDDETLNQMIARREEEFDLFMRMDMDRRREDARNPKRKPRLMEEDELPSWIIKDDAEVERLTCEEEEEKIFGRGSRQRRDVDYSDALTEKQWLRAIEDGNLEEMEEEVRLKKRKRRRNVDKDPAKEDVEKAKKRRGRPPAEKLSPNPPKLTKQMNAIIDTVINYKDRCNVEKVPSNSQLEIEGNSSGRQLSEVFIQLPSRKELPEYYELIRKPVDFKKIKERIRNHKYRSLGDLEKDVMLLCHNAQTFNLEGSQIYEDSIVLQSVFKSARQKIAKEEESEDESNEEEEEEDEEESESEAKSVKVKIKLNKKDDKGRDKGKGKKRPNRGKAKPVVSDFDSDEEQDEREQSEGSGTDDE

Molecule `Nc1nnc(-c2ccccc2O)cc1N1CC2CCC(C1)N2c1cccc(CN2CCN(C(=O)CCC3CCN(c4ccc5c(c4)C(=O)N(C4CCC(=O)NC4=O)C5=O)CC3)CC2)c1` (racemic) [Example 47, rac-5-[4-[3-[4-[[3-[3-[3-Amino-6-(2-hydroxyphenyl)pyridazin-4-yl]-3,8-diazabicyclo[3.2.1]octan-8-yl]phenyl]methyl]piperazin-1-yl]-3-oxo-propyl]-1-piperidyl]-2-(2,6-dioxo-3-piperidyl)isoindoline-1,3-dione] has a DC50 (6 h incubation, HiBiT-tagged SMARCA2, luminescence read-out, read-out: HiBit A549 SMARCA2 IP (nM) 6 h) of 17 nM and an Emax (A549, 6 h incubation, Emax = amount of residual protein remaining in the cell following compound treatment) of 42%.
